Assay results taken from ChEMBL document CHEMBL3853322, “Thrombospondin-1 Mimetic Agonist Peptides Induce Selective Death in Tumor Cells: Design, Synthesis, and Structure-Activity Relationship Studies” (J Med Chem, 2016).
pKd: −log10 of the molar value. Activity calls are given as the source filed them. The rule behind the calls is not given here. Square brackets hold non-standard residues; d marks the D form. Peptide text beside a SMILES is read from it. * marks the point of attachment. X1 = N=C(N)NCCC[C@H](CN)C(=O)*; β3hK = NCCCC[C@H](N)CC(=O)O

Assays:
[1] = Induction of cell death in human RPMI8226 cells at 300 uM after 2 hrs by Annexin-V/propidium iodide staining based FACS analysis; assay type: functional, RPMI-8226
CLL [2] = experiment: Induction of programmed cell death in human CLL cells harboring ATM 11q deletion mutant at 50 to 400 uM after 2 hrs by Annexin-V/propidium iodide staining based FACS analysis; assay type: functional
[3] = Induction of cell death in human U937 cells at 300 uM after 2 hrs by Annexin-V/propidium iodide staining based FACS analysis; assay type: functional, U-937
[4] = Induction of cell death in human LNCAP cells at 300 uM after 2 hrs by Annexin-V/propidium iodide staining based FACS analysis; assay type: functional
[5] = Drug degradation in human serum up to 5 mins by HPLC analysis; assay type: ADME
[6] = Induction of cell death in human Ramos cells at 300 uM after 2 hrs by Annexin-V/propidium iodide staining based FACS analysis; assay type: functional
[7] = Induction of cell death in human Raji cells at 300 uM after 2 hrs by Annexin-V/propidium iodide staining based FACS analysis; assay type: functional
[8] = Induction of cell death in human MCF7 cells at 300 uM after 2 hrs by Annexin-V/propidium iodide staining based FACS analysis; assay type: functional
[9] = Cytotoxicity against human B lymphocytes assessed as cell death at 50 to 400 uM after 2 hrs by Annexin-V/propidium iodide staining based FACS analysis; assay type: toxicity
[10] = Induction of cell death in human AU565 cells at 300 uM after 2 hrs by Annexin-V/propidium iodide staining based FACS analysis; assay type: functional
[11] = Induction of cell death in human OVCAR10 cells at 300 uM after 2 hrs by Annexin-V/propidium iodide staining based FACS analysis; assay type: functional
[12] = Induction of cell death in human CEM cells at 300 uM after 2 hrs by Annexin-V/propidium iodide staining based FACS analysis; assay type: functional, CCRF-CEM
[13] = Induction of cell death in human HBL100 cells at 300 uM after 2 hrs by Annexin-V/propidium iodide staining based FACS analysis; assay type: functional, HBL-100
CLL [14] = experiment: Induction of programmed cell death in human CLL cells at 50 to 400 uM after 2 hrs by Annexin-V/propidium iodide staining based FACS analysis; assay type: functional
[15] = Induction of cell death in human MEC1 cells at 300 uM after 2 hrs by Annexin-V/propidium iodide staining based FACS analysis; assay type: functional
[16] = Induction of programmed cell death in human MEC1 cells at 200 uM after 2 hrs by Annexin-V/propidium iodide staining based FACS analysis; assay type: functional
[17] = Induction of cell death in human MDA-MB-231 cells at 300 uM after 2 hrs by Annexin-V/propidium iodide staining based FACS analysis; assay type: functional
[18] = Induction of cell death in human Jurkat cells at 300 uM after 2 hrs by Annexin-V/propidium iodide staining based FACS analysis; assay type: functional
CLL [19] = experiment: Induction of programmed cell death in human CLL cells harboring TP53 17p deletion mutant at 50 to 400 uM after 2 hrs by Annexin-V/propidium iodide staining based FACS analysis; assay type: functional
[20] = Induction of cell death in human A549 cells at 300 uM after 2 hrs by Annexin-V/propidium iodide staining based FACS analysis; assay type: functional
[21] = Induction of cell death in human JM1 cells at 300 uM after 2 hrs by Annexin-V/propidium iodide staining based FACS analysis; assay type: functional
[22] = Aqueous solubility of compound in 50 mM sodium succinate buffer at >1 mM at pH 5 by 1D 1H NMR spectroscopic analysis; assay type: physicochemical
[23] = Induction of cell death in human HeLa cells at 300 uM after 2 hrs by Annexin-V/propidium iodide staining based FACS analysis; assay type: functional
[24] = Induction of cell death in human RPMI8866 cells at 300 uM after 2 hrs by Annexin-V/propidium iodide staining based FACS analysis; assay type: functional, RPMI-8866
[25] = Aqueous solubility of compound in 50 mM sodium succinate buffer at 2 mM at pH 5 by 1D 1H NMR spectroscopic analysis; assay type: physicochemical; details: buffer, pH 5, 2000 µM
[26] = Metabolic stability in human serum at 10 mg/ml at 37 degC after 2 hrs by HPLC analysis; assay type: ADME
[27] = target: Leukocyte surface antigen CD47 (Homo sapiens, UniProt Q08722); experiment: Binding affinity to CD47 receptor in human biotinylated MEC1 cell membranes by biolayer interferometry
[28] = Drug degradation in human serum at 10 mg/ml after 2 hrs by HPLC analysis; assay type: ADME

Sequence of Leukocyte surface antigen CD47 (Q08722 whole entry): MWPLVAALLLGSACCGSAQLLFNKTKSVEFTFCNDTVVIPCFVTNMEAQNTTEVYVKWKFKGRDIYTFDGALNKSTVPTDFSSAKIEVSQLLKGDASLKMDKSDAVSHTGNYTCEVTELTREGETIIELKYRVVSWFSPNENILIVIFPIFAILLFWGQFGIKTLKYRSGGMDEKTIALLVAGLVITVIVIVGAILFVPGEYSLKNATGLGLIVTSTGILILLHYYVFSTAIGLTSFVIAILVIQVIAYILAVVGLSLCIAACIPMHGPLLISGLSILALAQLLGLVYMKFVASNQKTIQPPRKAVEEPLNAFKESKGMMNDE

**Q.** What does the source list for CSCC[C@H](NC(=O)[C@@H](NC(=O)[C@@H](NC(=O)[C@H](Cc1ccc(O)cc1)NC(=O)[C@H](Cc1ccccc1)NC(=O)[C@H](CCCNC(=N)N)NC(=O)[C@@H](N)CCCCN)C(C)C)C(C)C)C(=O)N[C@@H](Cc1c[nH]c2ccccc12)C(=O)N[C@@H](CCCCN)C(=O)N[C@@H](CCCCN)C(=O)O?
**A.** Activity [1]: 30%; Activity (CLL [2]): Active; Activity [3]: 30%; Activity [4]: 30%; Stability [5]: Unstable; Activity [6]: 30%; Activity [7]: 30%; Activity [8]: 30%; Activity [9]: Non-Toxic; Activity [10]: 30%; Activity [11]: 30%; Activity [12]: 30%; Activity [13]: 30%; Activity (CLL [14]): Active; Activity [15]: 30%; Activity [16]: 23%; Activity [17]: 30%; Activity [18]: 30%; Activity (CLL [19]): Active; Activity [20]: 30%; Activity [21]: 30%; solubility [22]: Soluble; Activity [23]: 30%; Activity [24]: 30%

**Q.** With CSCC[C@H](NC(=O)[C@@H](NC(=O)[C@@H](NC(=O)[C@H](Cc1ccc(O)cc1)NC(=O)[C@H](Cc1ccccc1)NC(=O)[C@H](CCCNC(=N)N)NC(=O)[C@H](N)CCCCN)C(C)C)C(C)C)C(=O)N[C@@H](Cc1c[nH]c2ccccc12)C(=O)N[C@@H](C)C(=O)N[C@H](CCCCN)C(=O)O (H-[dK]RFYVVMWA[dK]-OH) as the compound, how does the Activity [16] read?
**A.** The Activity was 46%.

**Q.** With CSCC[C@H](NC(=O)[C@@H](NC(=O)[C@@H](NC(=O)[C@H](Cc1ccc(O)cc1)NC(=O)[C@H](C)NC(=O)[C@H](CCCNC(=N)N)NC(=O)[C@H](N)CCCCN)C(C)C)C(C)C)C(=O)N[C@@H](Cc1c[nH]c2ccccc12)C(=O)N[C@@H](CCCCN)C(=O)N[C@H](CCCCN)C(=O)O (H-[dK]RAYVVMWK[dK]-OH) as the compound, how does the Activity [16] read?
**A.** Its Activity is 6%.

**Q.** With CSCC[C@H](NC(=O)[C@@H](NC(=O)[C@@H](NC(=O)[C@H](C)NC(=O)[C@H](Cc1ccccc1)NC(=O)[C@H](CCCNC(=N)N)NC(=O)[C@H](N)CCCCN)C(C)C)C(C)C)C(=O)N[C@@H](Cc1c[nH]c2ccccc12)C(=O)N[C@@H](CCCCN)C(=O)N[C@H](CCCCN)C(=O)O as the compound, how does the Activity [16] read?
**A.** The Activity was 0%.

**Q.** What does the source list for CSCC[C@H](NC(=O)[C@@H](NC(=O)[C@@H](NC(=O)[C@H](Cc1ccc(O)cc1)NC(=O)[C@H](Cc1ccccc1)NC(=O)[C@H](CCCNC(=N)N)NC(C)=O)C(C)C)C(C)C)C(=O)N[C@@H](Cc1c[nH]c2ccccc12)C(=O)N[C@@H](CCCCN)C(N)=O?
**A.** solubility [25]: Insoluble; Stability [26]: Stable; Activity [16]: 27%

**Q.** With CSCC[C@H](NC(=O)[C@@H](NC(=O)[C@@H](NC(=O)[C@H](Cc1ccc(O)cc1)NC(=O)[C@H](Cc1ccccc1)NC(=O)[C@@H](CN)CCCNC(=N)N)C(C)C)C(C)C)C(=O)N[C@@H](Cc1c[nH]c2ccccc12)C(=O)N[C@@H](CCCCN)CC(=O)O (X1-FYVVMW[β3hK]-OH) as the compound, how does the solubility [25] read?
**A.** Its solubility is “Insoluble”.

**Q.** What about the Stability [26] of the same compound?
**A.** The Stability was “Stable”.

**Q.** For CCCCC(NC(=O)[C@@H](NC(=O)[C@@H](NC(=O)[C@H](Cc1ccc(O)cc1)NC(=O)[C@H](Cc1ccccc1)NC(=O)[C@H](CCCNC(=N)N)NC(=O)[C@H](N)CCCCN)C(C)C)C(C)C)C(=O)N[C@@H](Cc1c[nH]c2ccccc12)C(=O)N[C@@H](CCCCN)C(=O)N[C@H](CCCCN)C(=O)O (some centres not stated), which Activity [16] is on record?
**A.** The Activity was 47%.

**Q.** What about the pKd [27] of the same compound?
**A.** Its pKd is 4.74.

**Q.** With Ac-KRFYVVMWKK-NH2 as the compound, how does the Stability [28] read?
**A.** The Stability was “Unstable”.

**Q.** What about the Activity [16] of the same compound?
**A.** The Activity was 30%.

**Q.** What about the solubility [22] of the same compound?
**A.** The solubility was “Soluble”.
